Measured values reported in patent publication US10077272B2, “Heteroaromatic compounds and their use as dopamine D1 ligands” (PFIZER INC., priority 2014, dated 2018).
Structures can show the parent of a compound that is named as a salt.

The compounds below were run against Human D1 Receptor (Homo sapiens (Human), UniProt P21728) (assay: Human D1 Receptor Binding Assay ([3H]-SCH23390 competition)). Settings: competition with 0.5 nM [3H]-SCH23390, over-expressing LTK human cell lines, 30 min at 37° C.; values marked ^a are from a single determination; read-out: Human D1 Receptor Binding, Ki (nM); Geometric mean of 2-4 determinations (unless otherwise indicated).
Human D1 Receptor, sequence (P21728 whole entry): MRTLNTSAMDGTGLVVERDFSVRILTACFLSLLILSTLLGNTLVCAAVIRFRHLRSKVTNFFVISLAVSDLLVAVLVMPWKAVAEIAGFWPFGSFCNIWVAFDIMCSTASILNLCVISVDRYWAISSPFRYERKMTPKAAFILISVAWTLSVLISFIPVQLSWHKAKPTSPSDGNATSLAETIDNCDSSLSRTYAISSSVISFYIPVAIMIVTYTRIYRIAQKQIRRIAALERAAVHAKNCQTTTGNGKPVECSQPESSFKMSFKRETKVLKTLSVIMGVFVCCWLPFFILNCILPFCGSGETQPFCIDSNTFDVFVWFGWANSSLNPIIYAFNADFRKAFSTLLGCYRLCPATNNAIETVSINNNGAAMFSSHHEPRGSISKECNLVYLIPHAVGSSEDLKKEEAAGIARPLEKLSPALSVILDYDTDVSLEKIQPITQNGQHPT
Protocol: D1 binding assays were performed using over-expressing LTK human cell lines. […] These ligand and tissue concentrations were used in time course studies to determine linearity and equilibrium conditions for binding. […] The pellet was resuspended in assay buffer [50 mM Tris (pH 7.4@ RT) containing 4 mM MgSO4 and 0.5 mM EDTA]. […] Non-specific binding was determined by radioligand binding in the presence of a saturating concentration of (+)-Butaclamol (10 μM), a D1 antagonist. After a 30 minute incubation period at 37° C., assay samples were rapidly filtered through Unifilter-96 GF/B PEI-coated filter plates and rinsed with 50 mM Tris buffer (pH 7.4 at 4° C.). […] Ki values were calculated according to the Cheng-Prusoff equation: […]

| Structure (SMILES) | Ki |
| --- | --- |
| Cc1cc(Oc2ncnc3occc23)ccc1-c1c(C)ncc(=O)n1C (single isomer, unassigned) [Example 4, (−)-6-[4-(furo[2,3-d]pyrimidin-4-yloxy)-2-methylphenyl]-1,5-dimethylpyrazin-2(1H)-one] | 127 nM |
| Cc1cc(Oc2ncnc3occc23)ccc1-c1c(C)ncc(=O)n1C (single isomer, unassigned) [Example 5, (+)-6-[4-(furo[2,3-d]pyrimidin-4-yloxy)-2-methylphenyl]-1,5-dimethylpyrazin-2(1H)-one] | 400 nM |
| Cc1cc(Oc2ncnc3occc23)ccc1-c1c(C)n[nH]c(=O)c1C (single isomer, unassigned) [Example 7, (+)-5-[4-(furo[2,3-d]pyrimidin-4-yloxy)-2-methylphenyl]-4,6-dimethylpyridazin-3(2H)-one] | 30.7 nM |
| Cc1cc(Oc2ncnc3occc23)ccc1-c1c(C)n[nH]c(=O)c1C (single isomer, unassigned) [Example 8, (−)-5-[4-(furo[2,3-d]pyrimidin-4-yloxy)-2-methylphenyl]-4,6-dimethylpyridazin-3(2H)-one] | 40.2 nM |
| Cc1cc(Oc2ncnc3occc23)ccc1-c1c(C)ncc(=O)n1C [Example 3, 6-[4-(furo[2,3-d]pyrimidin-4-yloxy)-2-methylphenyl]-1,5-dimethylpyrazin-2(1H)-one] | 196 nM |
| Cc1cc(Oc2ncnc3occc23)ccc1-c1c(C)n[nH]c(=O)c1C [Example 6, 5-[4-(furo[2,3-d]pyrimidin-4-yloxy)-2-methylphenyl]-4,6-dimethylpyridazin-3(2H)-one] | 44.7 nM |
| Cc1c(-c2ccc(Oc3ncnc4occc34)cc2)n(C)c(=O)[nH]c1=O [Example 9, 6-[4-(furo[2,3-d]pyrimidin-4-yloxy)phenyl]-1,5-dimethylpyrimidine-2,4(1H,3H)-dione] | 142 nM |
| Cc1cc(Oc2nccc3[nH]cnc23)ccc1-c1c(C)ncnc1C#N [Example 12, 5-[4-(1H-imidazo[4,5-c]pyridin-4-yloxy)-2-methylphenyl]-6-methylpyrimidine-4-carbonitrile] | 367 nM |

More lines, now with the values ahead:

| Ki | Structure (SMILES) |
| --- | --- |
| 70.3 nM | Cc1n[nH]c(=O)c(C)c1-c1ccc(Oc2ncnc3occc23)cc1 [Example 13, 5-[4-(furo[2,3-d]pyrimidin-4-yloxy)phenyl]-4,6-dimethylpyridazin-3(2H)-one] |
| 372 nM | Cc1cc(Oc2ncnc3occc23)ccc1-c1cn[nH]c(=O)c1C [Example 14, 5-[4-(furo[2,3-d]pyrimidin-4-yloxy)-2-methylphenyl]-4-methylpyridazin-3(2H)-one] |
| 280 nM | Cc1c(-c2ccc(Oc3nccc4onc(C)c34)cc2)n(C)c(=O)[nH]c1=O [Example 15, 1,5-dimethyl-6-{4-[(3-methyl[1,2]oxazolo[4,5-c]pyridin-4-yl)oxy]phenyl}pyrimidine-2,4(1H,3H)-dione] |
| 326 nM | Cc1cc(Oc2nccc3onc(C)c23)ccc1-c1c(C)n[nH]c(=O)c1C [Example 16, 4,6-dimethyl-5-{2-methyl-4-[(3-methyl[1,2]oxazolo[4,5-c]pyridin-4-yl)oxy]phenyl}pyridazin-3(2H)-one, trifluoroacetic acid salt] |
| 1730 nM | Cc1cc(Oc2nccc3onc(C)c23)ccc1-c1c(C)ncc(=O)n1C [Example 17, 1,5-dimethyl-6-{2-methyl-4-[(3-methyl[1,2]oxazolo[4,5-c]pyridin-4-yl)oxy]phenyl}pyrazin-2(1H)-one, trifluoroacetic acid salt] |
| 274 nM | CCc1c(-c2ccc(Oc3ncnc4occc34)cc2)n(C)c(=O)[nH]c1=O [Example 18, 5-ethyl-6-[4-(furo[2,3-d]pyrimidin-4-yloxy)phenyl]-1-methylpyrimidine-2,4(1H,3H)-dione] |
| 900 nM | COCCn1c(-c2ccc(Oc3ncnc4occc34)cc2)c(C)c(=O)[nH]c1=O [Example 19, 6-[4-(furo[2,3-d]pyrimidin-4-yloxy)phenyl]-1-(2-methoxyethyl)-5-methylpyrimidine-2,4(1H,3H)-dione] |
| 179 nM | CCn1c(-c2ccc(Oc3ncnc4occc34)cc2)c(C)c(=O)[nH]c1=O [Example 20, 1-ethyl-6-[4-(furo[2,3-d]pyrimidin-4-yloxy)phenyl]-5-methylpyrimidine-2,4(1H,3H)-dione] |
| 122 nM | Cc1c(-c2ccc(Oc3ncnc4occc34)cc2)n(C2CC2)c(=O)[nH]c1=O [Example 21, 1-cyclopropyl-6-[4-(furo[2,3-d]pyrimidin-4-yloxy)phenyl]-5-methylpyrimidine-2,4(1H,3H)-dione] |
| 142 nM | CCc1c(-c2ccc(Oc3ncnc4occc34)cc2)n(C2CC2)c(=O)[nH]c1=O [Example 22, 1-cyclopropyl-5-ethyl-6-[4-(furo[2,3-d]pyrimidin-4-yloxy)phenyl]pyrimidine-2,4(1H,3H)-dione] |
| 309 nM | CCc1c(-c2ccc(Oc3ncnc4occc34)cc2)n(CC)c(=O)[nH]c1=O [Example 23, 1,5-diethyl-6-[4-(furo[2,3-d]pyrimidin-4-yloxy)phenyl]pyrimidine-2,4(1H,3H)-dione] |
